From BindingDB's records for patent US20230322706 (Lg Chem, 2023)

Biological target: T1, Diacylglycerol O-acyltransferase 2 (Homo sapiens, UniProt Q96PD7)
T1 sequence (Q96PD7 whole entry): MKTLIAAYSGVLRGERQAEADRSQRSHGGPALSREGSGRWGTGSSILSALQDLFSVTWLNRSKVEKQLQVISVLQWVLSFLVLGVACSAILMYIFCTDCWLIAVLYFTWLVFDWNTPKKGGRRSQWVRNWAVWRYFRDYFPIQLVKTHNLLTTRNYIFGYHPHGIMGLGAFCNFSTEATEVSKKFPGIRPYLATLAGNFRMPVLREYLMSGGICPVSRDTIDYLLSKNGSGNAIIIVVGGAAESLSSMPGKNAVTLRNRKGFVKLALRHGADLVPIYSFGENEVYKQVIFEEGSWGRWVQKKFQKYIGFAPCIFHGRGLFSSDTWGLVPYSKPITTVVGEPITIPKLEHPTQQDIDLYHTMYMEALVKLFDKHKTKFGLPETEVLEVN
Assay: Measurement of Inhibitory Effect Against DGAT2 Enzyme Activity
Procedure: 1. […] In order to prepare the pBacPAK9-DGAT2, which is DGAT2 expression vector, the human DGAT2 gene amplified by polymerase chain reaction (PCR) was cloned into the EcoR1 and Xho1 sites of the pBacPAK9 (clonctech) vector. The nucleotide sequence of the primers used in PCR was the forward primer 5′ […] […] and the reverse primer 5′ […]. The composition of the reaction solution was to contain 50 ng of cDNA clone (OriGene), 200 μM of dATP, dCTP, dTTP, dGTP, 200 nM of each primer, 1 unit of Tag DNA Polymerase (Toyobo), 1x PCR buffer, and the final volume was adjusted to 20 μl. The reaction conditions were denatured at 95° C. for 5 minutes, followed by 30 times of 94° C. for 20 seconds, 60° C. for 20 seconds, and 72° C. for 90 seconds, followed by further reaction at 72° C. for 7 minutes. 2. […] Recombinant human DGAT2 protein was expressed in Sf-21 cells, which are insect cells, by using the BacPack baculovirus expression system (Clontech). The brief manufacturing process is as follows. First, the pBacPAK9-DGAT2 expression vector was transfected with BacPAK6 virus DNA (Bsu36I digest) into sf21 cells using Bacfectin to prepare a recombinant DGAT2 expressing baculovirus. The thus prepared baculovirus was infected with Sf-21 cells at 10 MOI (multiplicity of infection), and after 72 hours, infected insect cells were collected and membrane proteins were isolated. […] Protein concentration was quantified by using the BCA Protein Assay Kit (Thermo Scientific). […] The next day, the amplified scintillation signal (cpm) in Topcounter (Packard) was measured to measure the degree of production of [14C]-labeled triacyl glycerol (TG) as a reaction product. The measured value when the compound was not treated was used as a positive control, and the measured value of the compound treated group was calculated as a relative % to measure the inhibition effect of the compound on TG production.

SMILES	IC50 [nM]
CCOC(=O)C(F)(F)c1ccc(CC(=O)Nc2cncc(-c3cncc(Oc4ccccc4OCC)c3)n2)cc1 [US20230322706, Example 6]	120
CCOc1ccccc1Oc1cccc(-c2cncc(NC(=O)/C=C/c3ccc(C(C)(C)C(=O)O)cc3)n2)c1 [US20230322706, Example 17]	240
CCOc1ccccc1Oc1cccc(-c2cncc(NC(=O)Cc3ccc(C(F)(F)C(=O)O)cc3)n2)c1 [US20230322706, Example 14]	3100
